Laboratory results from US20220162163A1, “ALANINE-BASED MODULATORS OF PROTEOLYSIS AND ASSOCIATED METHODS OF USE” (Arvinas Operations, Inc., priority 2015, published 2022).

Legend:
Format in all cases: cell-based
[1] = biological target: T1, JNK2 (Homo sapiens, UniProt P45984); assay: Cellular assay of JNK degradation (A549 cells, Western blot), JNK2; details: for JNK2 degradation range: PROTAC concentration 1 μM, relative to DMSO control; for DC50: read-out: JNK2 DC50 range
T1 construct: A549 lung adenocarcinoma cells were purchased from ATCC and cultured in RPMI1640 Medium; endogenous in cells; host or cells: A549
T1 sequence (P45984 whole entry): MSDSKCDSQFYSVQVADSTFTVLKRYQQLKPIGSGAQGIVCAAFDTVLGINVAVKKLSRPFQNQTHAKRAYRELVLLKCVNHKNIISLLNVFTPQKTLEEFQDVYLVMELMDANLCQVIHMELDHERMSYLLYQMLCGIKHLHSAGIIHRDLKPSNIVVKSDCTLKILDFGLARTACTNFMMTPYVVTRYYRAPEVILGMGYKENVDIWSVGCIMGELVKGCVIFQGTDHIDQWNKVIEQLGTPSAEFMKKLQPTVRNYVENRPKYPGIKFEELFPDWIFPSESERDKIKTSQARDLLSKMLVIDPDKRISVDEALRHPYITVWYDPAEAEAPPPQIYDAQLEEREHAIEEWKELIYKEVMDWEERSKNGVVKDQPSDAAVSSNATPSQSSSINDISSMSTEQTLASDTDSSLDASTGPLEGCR
Procedure: (§1) Protocol of the cellular assay of JNK degradation (A549 cells, Western blot). A549 lung adenocarcinoma cells were purchased from ATCC and cultured in RPMI1640 Medium (Gibco) supplemented with 10% Fetal Bovine Serum (Gibco). […] Cells were stimulated with PMA (Phorbol 12-myristate 13-acetate, Sigma) for 1 hour before harvesting. Cells were lysed in Cell Signaling lysis buffer supplemented with protease inhibitors (Thermo). The lysates were centrifuged at 20,000×g for 15 minutes to clarify, and protein concentration was determined by BCA (Pierce). Equal amounts of protein (5 micrograms) were separated by SDS-PAGE and transferred onto nitrocellulose membranes. The mermbranes were probed with antibodies against SAPK/JNK (Cell Signaling #9252), phospho-c-Jun (Cell Signaling #3270), MDM2 (Sigma M4308) and p53 (Cell Signaling #2527). HRP-conjugated anti-rabbit and anti-mouse secondary antibodies were from Cell Signaling. The bands were visualized with SuperSignal West Femto Substrate (Thermo). Quantitation was done using Image Lab Software v5.2.1.

[2] = biological target: T2, JNK1 (Homo sapiens, UniProt P45983); assay: Cellular assay of JNK degradation (A549 cells, Western blot), JNK1; details: for JNK1 degradation range: PROTAC concentration 1 μM, relative to DMSO control; for DC50: read-out: JNK1 DC50 range
T2 construct: A549 lung adenocarcinoma cells were purchased from ATCC and cultured in RPMI1640 Medium; endogenous in cells; host or cells: A549
T2 sequence (P45983 whole entry): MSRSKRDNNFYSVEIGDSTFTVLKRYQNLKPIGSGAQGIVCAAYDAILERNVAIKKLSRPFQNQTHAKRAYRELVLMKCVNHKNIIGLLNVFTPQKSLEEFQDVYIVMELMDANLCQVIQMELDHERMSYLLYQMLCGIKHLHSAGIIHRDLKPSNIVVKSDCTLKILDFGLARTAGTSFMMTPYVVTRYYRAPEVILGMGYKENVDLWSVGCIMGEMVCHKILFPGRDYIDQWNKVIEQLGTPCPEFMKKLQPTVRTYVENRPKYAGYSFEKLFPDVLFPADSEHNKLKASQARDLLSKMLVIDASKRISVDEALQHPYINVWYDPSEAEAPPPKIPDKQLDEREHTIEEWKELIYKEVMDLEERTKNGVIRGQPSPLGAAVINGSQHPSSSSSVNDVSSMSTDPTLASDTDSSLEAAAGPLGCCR
Procedure: as §1

[3] = biological target: T3, Androgen receptor (AR) (Homo sapiens, UniProt P10275); assay: Cellular assay of androgen receptor (AR) degradation (VCaP cells, ELISA); details: for Androgen receptor (AR) degradation in VCaP cells: @ 1 μM; for Dmax at 1 µM: 4 h, read-out: Target protein degradation range
T3 construct: endogenous in cells; host or cells: VCaP
T3 sequence (P10275 1-920): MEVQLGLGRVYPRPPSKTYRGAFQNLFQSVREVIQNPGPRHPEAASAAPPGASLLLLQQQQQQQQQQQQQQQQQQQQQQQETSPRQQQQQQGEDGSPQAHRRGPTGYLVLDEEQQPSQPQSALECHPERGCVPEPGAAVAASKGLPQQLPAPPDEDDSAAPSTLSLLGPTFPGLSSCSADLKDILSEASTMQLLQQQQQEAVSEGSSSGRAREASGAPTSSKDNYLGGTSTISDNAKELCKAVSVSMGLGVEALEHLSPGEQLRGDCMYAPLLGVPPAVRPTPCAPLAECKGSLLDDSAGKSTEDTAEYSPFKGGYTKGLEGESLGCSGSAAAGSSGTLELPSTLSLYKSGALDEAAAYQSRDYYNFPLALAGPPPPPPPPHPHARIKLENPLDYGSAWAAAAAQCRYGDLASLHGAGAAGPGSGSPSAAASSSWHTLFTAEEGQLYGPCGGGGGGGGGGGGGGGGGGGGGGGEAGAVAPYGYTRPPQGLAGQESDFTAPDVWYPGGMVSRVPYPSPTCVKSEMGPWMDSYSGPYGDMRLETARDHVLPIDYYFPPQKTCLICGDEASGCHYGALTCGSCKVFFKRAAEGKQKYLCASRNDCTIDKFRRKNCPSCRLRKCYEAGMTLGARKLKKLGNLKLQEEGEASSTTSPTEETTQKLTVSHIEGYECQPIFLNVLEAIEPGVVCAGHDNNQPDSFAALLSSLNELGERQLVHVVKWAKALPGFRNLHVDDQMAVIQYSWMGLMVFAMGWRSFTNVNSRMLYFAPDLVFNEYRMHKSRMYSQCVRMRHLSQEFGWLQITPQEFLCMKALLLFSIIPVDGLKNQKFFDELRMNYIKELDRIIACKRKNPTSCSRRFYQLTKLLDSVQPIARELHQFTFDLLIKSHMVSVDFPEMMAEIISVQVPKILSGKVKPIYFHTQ
Procedure: Protocol of the Cellular Assay of Androgen Receptor (AR) Degradation (VCaP Cells, ELISA).
For detection Cell Signaling PathScan Sandwich Elisa Catalog #12850 Lot 11 was used. VCaP cells were cultured in ATCC DMEM+ATCC FBS and plated 40,000/well 100 μl/well in RPMI P/S with 5% CSS Omega (bovine) serum into a 96 well plate. The cells were grown for a minimum of 3 days, dosed with compounds in 0.1% DMSO (diluted with 5% CSS) and incubated with aspiration for 4 hours. 100 μl of 1× Cell Signaling lysis buffer #9803 (36 ml dH2O+4 ml Cell Signaling lysis buffer) was added. The incubation was placed on cold room shaker for 10 min at speed 8-9. 5 μl to 100 μl of Diluent was transferred to Elisa plate (0.15 ug/ml-0.075 ug/ml) and stored at 4 C overnight on cold room shaker speed 5 (gentle swirl) and then shaken next morning at 37° C. for 30 min. The preparation was washed 4×200 μl with Elisa wash buffer and aspirated with eight-channel aspirator. 100 μl/well of AR detection Ab was added after which the preparation was covered and shaken at 37° C. for 1 hr. 100 ul TMB was added, and the mixture was shaken for 5 min while under observation. When TMB turned light blue, 100 ul of Stop solution was added, and the mixture was shaken and read at 450 nm. Also read at 562 for background subtraction.

[4] = androgen receptor, VCaP cells, PROTAC concentration 1 μM, relative to DMSO control

| Structure (SMILES) | JNK2 degradation range [1] | JNK1 degradation range [2] | DC50 [2] | Dmax at 1 µM [3, 4] | further results |
| --- | --- | --- | --- | --- | --- |
| CN[C@@H](C)C(=O)N[C@H](C(=O)N1CC[C@@H]2CCN(CCc3ccc(OCCOCCOCCOC4CCC(Nc5nccc(-c6cnn(Cc7ccccc7)c6N(C)C)n5)CC4)cc3)C[C@@H]21)C1CCCCC1 (mixture of isomers) [Example 18, (2S)—N-[(1S)-1-cyclohexyl-2-oxo-2-[6-[2-(4-[2-[2-(2-[[(1r,4r)-4-([4-[1-benzyl-5-(dimethylamino)-1H-pyrazol-4-yl]pyrimidin-2-yl]amino)cyclohexyl]oxy]ethoxy)-ethoxy]ethoxy]phenyl)ethyl]-octahydro-1H-pyrrolo[2,3-c]pyridin-1-yl]ethyl]-2-(methylamino)propanamide] | A (degradation more than 60%) | A (degradation more than 60%) | 1 to 100 nM |  | DC50 [1]: 100 to 1000 nM |
| CN[C@@H](C)C(=O)N[C@H](C(=O)N1CC[C@@H]2CCN(CCc3ccc(OCCOCCOC4CCC(Nc5nccc(-c6cnn(Cc7ccccc7)c6N(C)C)n5)CC4)cc3)C[C@@H]21)C1CCCCC1 (mixture of isomers) [Example 17, (2S)—N-[(1S)-1-cyclohexyl-2-oxo-2-[6-(2-[4-[2-(2-[[(1r,4r)-4-([4-[1-benzyl-5-(dimethylamino)-1H-pyrazol-4-yl]pyrimidin-2-yl]amino)cyclohexyl]oxy]ethoxy)ethoxy]phenyl]ethyl)-octahydro-1H-pyrrolo[2,3-c]pyridin-1-yl]ethyl]-2-(methylamino)propanamide] | A (degradation more than 60%) | A (degradation more than 60%) | 100 to 1000 nM |  | DC50 [1]: 100 to 1000 nM |
| CN[C@@H](C)C(=O)N[C@H](C(=O)N1CCC[C@H]1c1nc(-c2ccc(OCCOCCOCCOCCOCCO[C@H]3CC[C@H](Nc4nccc(-c5cnn(Cc6ccccc6)c5N(C)C)n4)CC3)c3ccccc23)cs1)C1CCCCC1 [Example 12, (2S)—N-[(1S)-1-cyclohexyl-2-oxo-2-[(2S)-2-[4-[4-([1-[(1r,4r)-4-([4-[1-benzyl-5-(dimethylamino)-1H-pyrazol-4-yl]pyrimidin-2-yl]amino)cyclohexyl]-1,4,7,10,13-pentaoxapentadecan-15-yl]oxy)naphthalen-1-yl]-1,3-thiazol-2-yl]pyrrolidin-1-yl]ethyl]-2-(methylamino)propanamide] | B (degradation between 30% and 60%) | A (degradation more than 60%) | 1 to 100 nM |  |  |
| CN[C@@H](C)C(=O)N[C@H](C(=O)N1CCC[C@H]1C(=O)N[C@H]1c2ccccc2C[C@H]1OCCOCCOCCOCCOc1ccc(C(=O)N[C@H]2C(C)(C)[C@H](Oc3ccc(C#N)c(Cl)c3)C2(C)C)cc1)C(C)(C)C [(2S)-1-[(2S)-3,3-dimethyl-2-[(2S)-2-(methylamino)propanamido]butanoyl]-N-[(1S,2R)-2-{[1-(4-1{[(1r,3r)-3-(3-chloro-4-cyanophenoxy)-2,2,4,4-tetramethylcyclobutyl]carbamoyl}phenyl)-1,4,7,10-tetraoxadodecan-12-yl]oxy}-2,3-dihydro-1H-inden-1-yl]pyrrolidine-2-carboxamide] |  |  |  |  | Androgen receptor (AR) degradation in VCaP cells [3]: 33% |
| CN[C@@H](C)C(=O)N[C@H](C(=O)N1CCC[C@H]1C(=O)N[C@H]1c2ccccc2C[C@H]1OCCOCCOc1ccc(N2C(=S)N(c3ccc(C#N)c(C(F)(F)F)c3)C(=O)C2(C)C)cc1)C(C)(C)C [Example 35, (S)—N-((1S,2R)-2-(2-(2-(4-(3-(4-cyano-3-(trifluoromethyl)-phenyl)-5,5-dimethyl-4-oxo-2-thioxoimidazolidin-1-yl)phenoxy)ethoxy)ethoxy)-2,3-dihydro-1H-inden-1-yl)-1-((S)-3,3-dimethyl-2-((S)-2-(methylamino)propanamido)-butanoyl)pyrrolidine-2-carboxamide] |  |  |  | 0 to 30% |  |
| CN[C@@H](C)C(=O)N[C@H](C(=O)N1CCC[C@H]1C(=O)N[C@H]1c2ccccc2C[C@H]1OCCOCCOc1ccc(N2C(=S)N(c3ccc(C#N)c(C(F)(F)F)c3)C(=O)C2(C)C)cc1)C(C)(C)C [drawing 254, (2S)—N-[(1S,2R)-2-{2-[2-(4-{3-[4-cyano-3-(trifluoromethyl)phenyl]-5,5-dimethyl-4-oxo-2-sulfanylideneimidazolidin-1-yl}phenoxy)ethoxy]ethoxy}-2,3-dihydro-1H-inden-1-yl]-1-[(2S)-3,3-dimethyl-2-[(2S)-2-(methylamino)propanamido]butanoyl]pyrrolidine-2-carboxamide] |  |  |  |  | Androgen receptor (AR) degradation in VCaP cells [3]: 29% |
| CN[C@@H](C)C(=O)N[C@H](C(=O)N1CC[C@@H]2CCN(CCc3ccc(OCCOCCOCCNc4ccc(C(=O)N[C@H]5C(C)(C)[C@H](Oc6ccc(C#N)c(Cl)c6)C5(C)C)cc4)cc3)C[C@@H]21)C1CCCCC1 (mixture of isomers) [Example 32, 4-[1-[4-(2-[1-[(2S)-2-cyclohexyl-2-[(2S)-2-(methylamino)propanamido]acetyl]-octahydro-1H-pyrrolo[2,3-c]pyridin-6-yl]ethyl)phenyl]-1,4,7-trioxa-10-azadecan-10-yl]-N-[(1r,3r)-3-(3-chloro-4-cyanophenoxy)-2,2,4,4-tetramethylcyclobutyl]benzamide] |  |  |  | 0 to 30% |  |
| CN[C@@H](C)C(=O)N[C@H](C(=O)N1CCC[C@H]1C(=O)N[C@H]1c2ccccc2C[C@H]1OCCOCCOCCOCCOCCOc1ccc(C(=O)NC2C(C)(C)C(Oc3ccc(C#N)c(Cl)c3)C2(C)C)cc1)C(C)(C)C (stereo partly drawn) [Example 1, 1-[3,3-dimethyl-(2S)-2-[(2S)-2-(methylamino)propanamido]butanoyl]-N-[(1S,2R)-2-[[1-(4-[[(1r,3r)-3-(3-chloro-4-cyanophenoxy)-2,2,4,4-tetramethylcyclobutyl]carbamoyl]phenyl)-1,4,7,10,13-pentaoxapentadecan-15-yl]oxy]-2,3-dihydro-1H-inden-1-yl]pyrrolidine-2-carboxamide] |  |  |  | 30 to 60% |  |
| CN[C@@H](C)C(=O)N[C@H](C(=O)N1CCCC1C(=O)N[C@H]1c2ccccc2C[C@H]1OCCOCCOCCOc1ccc(C(=O)NC2C(C)(C)C(Oc3ccc(C#N)c(Cl)c3)C2(C)C)cc1)C(C)(C)C (stereo partly drawn) [Example 2, 1-[(2S)-3,3-dimethyl-2-[(2S)-2-(methylamino)propanamido]butanoyl]-N-[(1S,2R)-2-(2-[2-[2-(4-[[(1r,3r)-3-(3-chloro-4-cyanophenoxy)-2,2,4,4-tetramethylcyclobutyl]carbamoyl]phenoxy)ethoxy]ethoxy]ethoxy)-2,3-dihydro-1H-inden-1-yl]pyrrolidine-2-carboxamide] |  |  |  |  | Target protein degradation range [3, 4]: C (degradation between 0% and 30%) |
